Like-named read-outs stand apart in the source and are kept apart here.
Key:
rNeu^+ (NF 9006) tumors = assay type: in vivo, mice; settings: established rNeu+ tumors, i.v. every 3-4 days; comparison between treatments
rNeu^+ tumor cells = assay type: in vivo, mice
Experimental: FIG. 6: Effect of virosome treatment on recently implanted tumors. 2×10^5 rNeu^+ tumor cells were injected s.c. and treatment was started 3-5 days later. I.v. injections of the different virosome formulations such as Doxo-Vir, Fab′-Doxo-Vir, Fab′-Vir and free Doxo (all at a concentration of 150 μg/ml doxorubicin) were performed at the indicated time points (arrows) for a period of three weeks. Tumor size was assessed twice a week during therapy and weekly in the follow-up period. Tumor formation (defined as volume >90 mm^3) in the different groups and the follow-up of >12 weeks is shown. Statistical analysis using Mann-Whitney rank test was performed. Control groups (◯), free Doxo (▾), Doxo-Vir (♦), Fab′-Vir (●), Fab′-Doxo-Vir (▪)
In another preferred embodiment of the invention, conjugated virosomes are used to arrest the metastatic spread of tumors. […] The effect of Fab′ conjugated virosomes on the growth of tumor metastases is assessed as follows. […] Tumor formation is assessed by palpation followed by measurement of tumor size as described in the previous example. […]
For the micrometastatic stage of tumor formation, 0.2×10^6 tumor cells are injected s.c. and treatment is started 3-5 days later. […] Tumor formation is assessed by palpation followed by measurement of tumor size as described in the previous example. […]

[1] = cited from earlier work

## COc1cccc2c1C(=O)c1c(O)c3c(c(O)c1C2=O)C[C@@](O)(C(=O)CO)C[C@@H]3O[C@H]1C[C@H](N)[C@H](O)[C@H](C)O1 [free Doxo, doxorubicin]
rNeu^+ (NF 9006) tumors
  tumor progression compared with another treatment group: no significant difference in tumor progression
rNeu^+ tumor cells; 2×10^5 rNeu+ cells s.c., treatment from day 3-5, 9 injections over 3 weeks, tumor formation >90 mm^3
  median time to tumor formation: 20 days
rNeu^+ tumor cells; within 4 weeks after tumor cell inoculation, all mice of the group
  tumor development: developed tumors
[1]; SCID mice
  tolerated dose: 2 to 3 mg/kg
[1]; normal mice
  tolerated dose: 6 mg/kg
